{
  "source": "patent US12239661B2",
  "about": "“Methods and compositions for treating undesired implanted tissue filler” (priority 2019, dated 2025)",
  "assay": "X-ray CT of volume, mean density and 3D shape of Radiesse nodules and injected hyperosmotic solutions (Example 4)",
  "assay_type": "in vivo, Pig (Sus scrofa domesticus)",
  "settings": "for Change in Volume as percent of Injected Volume, Day 14/15: Example 4 (Day 15); for Change in Volume as percent of Injected Volume, Day 14/15 / Change in Volume as percent of Injected Volume, Day 0 + 1 h 15 / Change in Volume as percent of Injected Volume, Day 0 + 2 h / Change in Volume as percent of Injected Volume, Day 0 + 4 h / Change in Volume as percent of Injected Volume, Day 1 / Change in Volume as percent of Injected Volume, Day 3 / Change in Volume as percent of Injected Volume, Day 7: mean; for Change in Volume as percent of Injected Volume, Day 0 + 1 h 15 / Change in Volume as percent of Injected Volume, Day 0 + 2 h / Change in Volume as percent of Injected Volume, Day 0 + 4 h / Change in Volume as percent of Injected Volume, Day 1 / Change in Volume as percent of Injected Volume, Day 3 / Change in Volume as percent of Injected Volume, Day 7: Example 4",
  "protocol": "Pigs are injected by SC route with Radiesse® filler without Lidocaine (Test item). One hour after the Radiesse® filler injection, selected different hyperosmotic solutions are injected by SC route into the dermal filler nodules. For two Radiesse® filler nodules per pig, no additional product is injected; these nodules are used as controls.\nThe evolution over time of the volume and mean density of the Radiesse® filler nodules with injection of the different solutions are assessed by CT-scanner at selected time points: on Day 0, at about 1 hour (h) and 15 minutes (min), 2 h and 4 h after the Radiesse® filler injection and solution injection, and then, on Day 1 (about 24 h after Radiesse® filler injection), Day 3, Day 7 and Day 15.\nOn Day 0, 4 pigs received ten (10) SC injections of Radiesse® dermal filler (P20WK-EE-01) of about 500 μl/nodule in the flank (ventral area) at T=0. One hour after Radiesse® dermal filler injections (T=1 h), about 1.5 ml of different hyperosmotic solutions (P20WK-EE-02 to P20WK-EE-05) were each injected into 8 Radiesse® filler nodules. Two Radiesse® filler nodules per animal were not injected with hyperosmotic solution and served as controls.\nA total of 7 CT-scans were performed at 1 h 15±10 min, 2 h±15 min, 4 h±20 min, 1 day (24 h±1 h), 3, 7 and 15 days after injection of the dermal filler, as described in FIG. 9A.\nOn Day 0 (TO), 10 SC injections of test item P20WK-EE-01 (Radiesse® dermal filler) were performed in the ventral area (five nodules on each flank of the ventral area). For each SC nodule, a theoretical volume of 500 μL was administered. One hour (±5 min) after injection of dermal filler, SC injections of the different solutions (prepared on Day −3) were performed into 8 nodules of dermal filler. For each injection of solution, a theoretical volume of 1.5 mL was administered (see, e.g., injection scheme in Table 11).\nIn order to measure the volume, the mean density and to visualize the 3D shape of the dermal filler SC injected (in presence or absence of different hyperosmotic solutions), in vivo CT-scans were performed on Day 0: 1 h 15 (±10 min), 2 h (±15 min) and 4 h (±20 min), on Day 1 (24 h±1 h), Day 3, Day 7 and Day 15.\nThe CT acquisitions are analyzed with the software Avizo version 9.2.0. The objective of this analysis was to assess the dispersion over time of the Radiesse® dermal filler injected by SC route after injection of different hyperosmotic solutions.\nTo achieve this goal, the evolution of these parameters is observed over time: • the volume of each nodule (Radiesse® dermal filler and solution separately), • the mean density of each nodule (Radiesse® dermal filler and solution separately), • the 3D shape of each nodule by visualization of the 3D model of each nodule at each time point (Radiesse® dermal filler with or without solution separately). Segmentation:\nAn image segmentation is performed on each CT acquisition on the […] reconstruction. At first, a manual pre-segmentation is performed around each nodule in order to roughly isolate the voxels corresponding to Radiesse® dermal filler and hyperosmotic solutions and defined a Region of Interest (ROI). Secondly, an automatic segmentation is applied on the ROI previously defined using a global grey level thresholding procedure. […] Similarly, all the voxels having a grey level between these HU values are selected in a ROI and corresponds to the pure solution or solution containing some dispersed Radiesse® dermal filler (see, FIG. 10).\nThen, a 3D model of these selected voxels (see, FIG. 11) is obtained allowing the calculation of the total volume (in mm^3) and the mean density (in HU) of the two defined compartments of each nodule of Pure Radiesse® dermal filler and of each solution containing or not containing dispersed Radiesse® dermal filler.\nThe volume (in mm^3) of the ROI of Radiesse® dermal filler and the solutions corresponding to each nodule and the mean density (in HU) of each nodule are calculated at each time point.",
  "key": {"[1]": {"settings": "individual nodules, [+250, +∞] HU, listed as Radiesse + Fructose"}, "[2]": {"settings": "mean of 8 nodules, [+250, +∞] HU"}},
  "note": "Values joined by “and” are separate entries in the source; they are usually repeats but may differ in a detail not shown here. Equal values may be shown once. Marks after values point to notes of the source that are not given here.",
  "data": [
    {"smiles": "O=C(CO)[C@@H](O)[C@H](O)[C@H](O)CO", "note": "[sol 11, Fructose]", "values": [
      {"measurement": "Change in Volume as percent of Injected Volume, Day 14/15", "value": 1930, "unit": "%"},
      {"measurement": "Change in Volume as percent of Injected Volume, Day 0 + 1 h 15", "value": "1581* percent"},
      {"measurement": "Change in Volume as percent of Injected Volume, Day 0 + 2 h", "value": 1610, "unit": "%"},
      {"measurement": "Change in Volume as percent of Injected Volume, Day 0 + 4 h", "value": 1871, "unit": "%"},
      {"measurement": "Change in Volume as percent of Injected Volume, Day 1", "value": 2285, "unit": "%"},
      {"measurement": "Change in Volume as percent of Injected Volume, Day 3", "value": 1959, "unit": "%"},
      {"measurement": "Change in Volume as percent of Injected Volume, Day 7", "value": 2002, "unit": "%"},
      {"measurement": "average of the mean density of solution nodules, T=1 h 15", "setting": "between −100 HU and 250 HU", "value": "58.6±6.2", "unit": "HU"},
      {"measurement": "average of the mean density of solution nodules, T=4 h", "setting": "between −100 HU and 250 HU", "value": "−1.0±7.7", "unit": "HU"},
      {"measurement": "mean volume of solution with potential dispersed Radiesse, Day 15", "setting": "between −100 HU and 250 HU", "value": "883.9±269.9", "unit": "mm^3"},
      {"measurement": "mean volume of solution with potential dispersed Radiesse, T+4 h", "setting": "between −100 HU and 250 HU", "value": "7000.8±1389.9", "unit": "mm^3"},
      {"measurement": "variation of solution volume on Day 15 compared to the injected volume on T=1 h", "setting": "between −100 HU and 250 HU", "value": "−42.8", "unit": "%"},
      {"measurement": "variation of the average of the mean density of solutions, Day 15 compared to T=1 h 15", "setting": "between −100 HU and 250 HU", "value": 34.7, "unit": "%"},
      {"measurement": "Nodule volume, Day 0 + 1 h 15", "setting": "[1]", "value": "799.1 mm^3 and 845.1 mm^3 and 739.4 mm^3 and 852.5 mm^3 and 760.4 mm^3 and 837.5 mm^3 and 793.0 mm^3 and 710.6 mm^3"},
      {"measurement": "Nodule volume, Day 0 + 2 h", "setting": "[1]", "value": "795.9 mm^3 and 856.3 mm^3 and 750.5 mm^3 and 863.0 mm^3 and 770.1 mm^3 and 898.7 mm^3 and 808.3 mm^3 and 712.1 mm^3"},
      {"measurement": "Nodule volume, Day 0 + 4 h", "setting": "[1]", "value": "1039.3 mm^3 and 957.8 mm^3 and 861.1 mm^3 and 985.4 mm^3 and 902.9 mm^3 and 1039.4 mm^3 and 912.1 mm^3 and 796.2 mm^3"},
      {"measurement": "Nodule volume, Day 1", "setting": "[1]", "value": "1168.5 mm^3 and 1120.2 mm^3 and 1122.3 mm^3 and 1226.3 mm^3 and 1085.5 mm^3 and 1165.0 mm^3 and 1153.8 mm^3 and 1115.5 mm^3"},
      {"measurement": "Nodule volume, Day 3", "setting": "[1]", "value": "1043.6 mm^3 and 1039.7 mm^3 and 961.0 mm^3 and 1053.3 mm^3 and 969.6 mm^3 and 992.2 mm^3 and 891.2 mm^3 and 897.7 mm^3"},
      {"measurement": "Nodule volume, Day 7", "setting": "[1]", "value": "1041.9 mm^3 and 1040.7 mm^3 and 1239.0 mm^3 and 1200.9 mm^3 and 879.3 mm^3 and 953.1 mm^3 and 833.5 mm^3 and 838.3 mm^3"},
      {"measurement": "Nodule volume, Day 15", "setting": "[1]", "value": "997.7 mm^3 (2×) and 997.2 mm^3 and 944.9 mm^3 and 1054.8 mm^3 and 923.5 mm^3 and 912.9 mm^3 and 905.4 mm^3"},
      {"measurement": "Mean nodule volume, Day 0 + 1 h 15", "setting": "[2]", "value": 792.2, "unit": "mm^3"},
      {"measurement": "Mean nodule volume, Day 0 + 2 h", "setting": "[2]", "value": 806.9, "unit": "mm^3"},
      {"measurement": "Mean nodule volume, Day 0 + 4 h", "setting": "[2]", "value": 936.8, "unit": "mm^3"},
      {"measurement": "Mean nodule volume, Day 1", "setting": "[2]", "value": 1144.6, "unit": "mm^3"},
      {"measurement": "Mean nodule volume, Day 3", "setting": "[2]", "value": 981.0, "unit": "mm^3"},
      {"measurement": "Mean nodule volume, Day 7", "setting": "[2]", "value": 1003.3, "unit": "mm^3"},
      {"measurement": "Mean nodule volume, Day 15", "setting": "[2]", "value": "966.8±52.9", "unit": "mm^3"},
      {"measurement": "Mean nodule volume, Day 15", "setting": "mean of 8 nodules, [+250, +∞] HU, listed as Radiesse + Fructose", "value": 966.8, "unit": "mm^3"},
      {"measurement": "average of the mean density of nodules, Day 1", "setting": "pure Radiesse >250 HU", "value": "424.6±31.6", "unit": "HU"},
      {"measurement": "average of the mean density of nodules, Day 3", "setting": "pure Radiesse >250 HU", "value": "505.0±72.2", "unit": "HU"},
      {"measurement": "average of the mean density of nodules, Day 15", "setting": "pure Radiesse >250 HU", "value": "512.9±57.4", "unit": "HU"}
    ]},
    {"smiles": "O=C([O-])O.[Na+]", "note": "[sol 14, Sodium hydrogen carbonate (sodium bicarbonate)]", "values": [
      {"measurement": "Change in Volume as percent of Injected Volume, Day 14/15", "value": 1977, "unit": "%"},
      {"measurement": "Change in Volume as percent of Injected Volume, Day 0 + 1 h 15", "value": "1529* percent"},
      {"measurement": "Change in Volume as percent of Injected Volume, Day 0 + 2 h", "value": 1561, "unit": "%"},
      {"measurement": "Change in Volume as percent of Injected Volume, Day 0 + 4 h", "value": 1799, "unit": "%"},
      {"measurement": "Change in Volume as percent of Injected Volume, Day 1", "value": 2214, "unit": "%"},
      {"measurement": "Change in Volume as percent of Injected Volume, Day 3", "value": 2014, "unit": "%"},
      {"measurement": "Change in Volume as percent of Injected Volume, Day 7", "value": 2345, "unit": "%"},
      {"measurement": "average of the mean density of solution nodules, T=1 h 15", "setting": "between −100 HU and 250 HU", "value": "25.7±5.5", "unit": "HU"},
      {"measurement": "average of the mean density of solution nodules, T=2 h", "setting": "between −100 HU and 250 HU", "value": "14.1±7.1", "unit": "HU"},
      {"measurement": "mean volume of solution with potential dispersed Radiesse, Day 15", "setting": "between −100 HU and 250 HU", "value": "1352.3±570.6", "unit": "mm^3"},
      {"measurement": "mean volume of solution with potential dispersed Radiesse, T=2 h", "setting": "between −100 HU and 250 HU", "value": "2577.4±54.0", "unit": "mm^3"},
      {"measurement": "variation of solution volume on Day 15 compared to the injected volume on T=1 h", "setting": "between −100 HU and 250 HU", "value": "−1.4", "unit": "%"},
      {"measurement": "average of the mean density of nodules, Day 15", "setting": "pure Radiesse >250 HU", "value": "441.3±62.9", "unit": "HU"}
    ]}
  ]
}
